Experimental data taken from ChEMBL document CHEMBL4325862, “Identification of novel quinazoline derivatives as potent antiplasmodial agents” (Eur J Med Chem, 2019).
The source made the active and inactive calls. The calls are words filed in the database; no cut-off is given here.

Columns and labels:
[1] = test system: Plasmodium berghei; test: Antimalarial activity against Plasmodium berghei ANKA infected in BALB/c mouse assessed as reduction in parasitemia at 20 mg/kg, po administered twice daily for 4 days by Giemsa-staining based microscopic analysis; type: functional, organism-based
[2] = molecular target: DNA (cytosine-5)-methyltransferase 1 (Homo sapiens, UniProt P26358); test: Inhibition of recombinant human DNMT1 using biotinylated DNA duplex as substrate measured after 2 hrs in presence of Adomet/[methyl-3H]Adomet by topcount method
[3] = Selectivity index, ratio of IC50 for mouse spleen cells to IC50 for asynchronous form of Plasmodium falciparum 3D7 infected in human erythrocytes; type: toxicity, cell-based; details: read-out: Ratio IC50
[4] = Plasma concentration in Crl:NRMI mouse at 10 mg/kg, iv measured after 15 mins by LC-MS/MS analysis; type: ADME, organism-based
[5] = Cytotoxicity against mouse spleen cells; type: cell-based
[6] = test system: Plasmodium berghei; test: Antimalarial activity against Plasmodium berghei ANKA infected in BALB/c mouse assessed as reduction in parasitemia at 20 mg/kg, po administered twice daily for 4 days measured day 6 to 11 post infection by Giemsa-staining based microscopic analysis; type: functional, organism-based
[7] = molecular target: DNA (cytosine-5)-methyltransferase 3A (Homo sapiens, UniProt Q9Y6K1); test: Inhibition of recombinant human DNMT3a C-terminal catalytic domain (623 to 908 residues) using 5'-biotinylated/3'-FAM-oligonucleotide as substrate measured after 1 hr in presence of Adomet by fluorescence assay
[8] = Plasma concentration in Crl:NRMI mouse at 10 mg/kg, po administered via gavage measured after 30 mins by LC-MS/MS analysis; type: ADME, organism-based
[9] = molecular target: T1, Histone-lysine N-methyltransferase EHMT2 (Homo sapiens, UniProt Q96KQ7); test: Inhibition of recombinant human N-terminal GST-fused G9a (786 to 1210 residues) expressed in Escherichia coli using biotinylated H3 (1 to 21 residues) as substrate measured after 1 hr in presence of 3H-Adomet by filter binding assay
T1 sequence (Q96KQ7 whole entry): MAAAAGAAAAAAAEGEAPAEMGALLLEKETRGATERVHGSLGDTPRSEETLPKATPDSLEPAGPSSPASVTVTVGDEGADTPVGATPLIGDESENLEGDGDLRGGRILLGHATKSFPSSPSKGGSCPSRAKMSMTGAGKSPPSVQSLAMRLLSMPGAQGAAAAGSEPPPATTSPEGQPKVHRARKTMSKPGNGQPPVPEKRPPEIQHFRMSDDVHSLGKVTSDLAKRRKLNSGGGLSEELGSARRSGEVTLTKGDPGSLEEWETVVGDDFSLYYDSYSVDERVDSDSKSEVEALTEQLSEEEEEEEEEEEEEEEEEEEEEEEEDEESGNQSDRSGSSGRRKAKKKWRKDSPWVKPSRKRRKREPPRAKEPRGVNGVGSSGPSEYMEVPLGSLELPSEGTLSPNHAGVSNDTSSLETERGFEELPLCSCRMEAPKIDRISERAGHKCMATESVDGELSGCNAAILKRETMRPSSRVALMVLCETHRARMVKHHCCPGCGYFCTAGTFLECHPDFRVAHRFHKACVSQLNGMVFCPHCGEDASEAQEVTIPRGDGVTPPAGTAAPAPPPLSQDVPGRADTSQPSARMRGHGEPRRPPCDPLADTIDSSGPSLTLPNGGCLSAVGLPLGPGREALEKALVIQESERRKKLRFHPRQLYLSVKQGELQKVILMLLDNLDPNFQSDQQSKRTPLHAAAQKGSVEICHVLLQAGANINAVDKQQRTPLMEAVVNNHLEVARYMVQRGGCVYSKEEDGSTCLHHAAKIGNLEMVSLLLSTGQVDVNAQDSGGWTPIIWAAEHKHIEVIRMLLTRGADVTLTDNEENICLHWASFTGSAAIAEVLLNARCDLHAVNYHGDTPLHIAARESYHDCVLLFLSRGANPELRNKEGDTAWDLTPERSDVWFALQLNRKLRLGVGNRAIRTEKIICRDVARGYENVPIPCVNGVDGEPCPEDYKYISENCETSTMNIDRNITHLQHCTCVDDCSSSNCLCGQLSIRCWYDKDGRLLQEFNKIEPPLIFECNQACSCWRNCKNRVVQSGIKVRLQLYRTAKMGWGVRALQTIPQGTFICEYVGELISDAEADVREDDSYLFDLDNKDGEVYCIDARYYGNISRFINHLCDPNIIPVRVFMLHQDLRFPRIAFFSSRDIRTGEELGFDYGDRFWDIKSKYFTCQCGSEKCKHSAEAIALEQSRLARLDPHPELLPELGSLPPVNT

[10] = test system: Plasmodium falciparum; test: Antiplasmodial activity against asynchronous form of Plasmodium falciparum W2 infected in human erythrocytes assessed as parasite growth inhibition after 48 hrs by SYBR green1 staining based flow cytometry; type: functional, organism-based; details: W2, 48 h
[11] = Plasma concentration in Crl:NRMI mouse at 10 mg/kg, po administered via gavage measured after 60 mins by LC-MS/MS analysis; type: ADME, organism-based
[12] = test system: Plasmodium falciparum; test: Antiplasmodial activity against Plasmodium falciparum Dd2 infected in human erythrocytes assessed as reduction in [3H]-hypoxanthine incorporation measured after 48 hrs by microbeta liquid scintillation counting method; type: functional, organism-based
[13] = test system: HFF; test: Cytotoxicity against HFF; type: cell-based; details: Homo sapiens
[14] = Plasma concentration in Crl:NRMI mouse at 10 mg/kg, iv measured after 60 mins by LC-MS/MS analysis; type: ADME, organism-based
[15] = test system: Plasmodium berghei; test: Antimalarial activity against Plasmodium berghei ANKA infected in BALB/c mouse assessed as reduction in parasitemia at 20 mg/kg, po administered twice daily for 5 days by Giemsa-staining based microscopic analysis; type: functional, organism-based
[16] = test system: Plasmodium falciparum; test: Antiplasmodial activity against asynchronous form of Plasmodium falciparum 3D7 infected in human erythrocytes assessed as parasite growth inhibition at 10 uM after 48 hrs by SYBR green1 staining based flow cytometry relative to control; type: functional; details: 3D7, 48 h
[17] = Solubility of the compound in DPBS at >1 ug/ml; type: physicochemical
[18] = test system: Plasmodium falciparum; test: Antiplasmodial activity against asynchronous form of Plasmodium falciparum 3D7 infected in human erythrocytes assessed as parasite growth inhibition after 48 hrs by SYBR green1 staining based flow cytometry; type: functional, organism-based; details: 3D7, 48 h
[19] = Stability in phosphate buffered saline at pH 7.4 assessed as parent compound remaining after 24 hrs by UV/RP-HPLC analysis; type: physicochemical; details: read-out: Stability
[20] = Plasma concentration in Crl:NRMI mouse at 10 mg/kg, po administered via gavage measured after 180 mins by LC-MS/MS analysis; type: ADME, organism-based
[21] = Plasma concentration in Crl:NRMI mouse at 10 mg/kg, iv measured after 180 mins by LC-MS/MS analysis; type: ADME, organism-based
[22] = Toxicity in BALB/c mouse infected with Plasmodium berghei ANKA assessed as death at 25 mg/kg, po administered twice daily for 4 days; type: organism-based; details: in vivo, 96 h
[23] = Stability in phosphate buffered saline at pH 7.4 after 24 hrs by UV/RP-HPLC analysis; type: physicochemical; details: buffer, pH 7.4, 24 h
[24] = test system: Plasmodium berghei; test: Antimalarial activity against Plasmodium berghei ANKA infected in BALB/c mouse assessed as parasitemia at 25 mg/kg, po administered twice daily for 4 days measured up to 14 days post infection by Giemsa-staining based microscopic analysis (reference value: 4%); type: functional
[25] = test system: Plasmodium berghei; test: Antimalarial activity against Plasmodium berghei ANKA infected in BALB/c mouse assessed as reduction in parasitemia at 25 mg/kg, po administered twice daily for 4 days by Giemsa-staining based microscopic analysis; type: functional, organism-based
[26] = Acute toxicity in Crl:NRMI mouse assessed as death at 50 mg/kg, iv measured after 15 to 180 mins by LC-MS/MS analysis; type: organism-based; details: in vivo
[27] = Plasma concentration in Crl:NRMI mouse at 50 mg/kg, po administered via gavage measured after 60 mins by LC-MS/MS analysis; type: ADME, organism-based
[28] = test system: Plasmodium berghei; test: Antimalarial activity against Plasmodium berghei ANKA infected in BALB/c mouse assessed as reduction in parasitemia at 10 mg/kg, po administered twice daily for 4 days by Giemsa-staining based microscopic analysis; type: functional, organism-based
[29] = Plasma concentration in Crl:NRMI mouse at 50 mg/kg, po administered via gavage measured after 30 mins by LC-MS/MS analysis; type: ADME, organism-based
[30] = Toxicity in BALB/c mouse infected with Plasmodium berghei ANKA assessed as death at 50 mg/kg, po administered twice daily for 4 days; type: organism-based; details: in vivo, 96 h
[31] = Plasma concentration in Crl:NRMI mouse at 50 mg/kg, po administered via gavage measured after 180 mins by LC-MS/MS analysis; type: ADME, organism-based
[32] = test system: Plasmodium berghei; test: Antimalarial activity against Plasmodium berghei ANKA infected in BALB/c mouse assessed as reduction in parasitemia at 50 mg/kg, po administered twice daily for 4 days by Giemsa-staining based microscopic analysis; type: functional, organism-based
[33] = test system: Plasmodium berghei; test: Antimalarial activity against Plasmodium berghei ANKA infected in BALB/c mouse assessed as parasitemia at 50 mg/kg, po administered twice daily for 4 days measured up to 14 days post infection by Giemsa-staining based microscopic analysis (reference value: 31 to 58%); type: functional
[34] = test system: Plasmodium falciparum 3D7; test: Inhibition of Plasmodium falciparum 3D7 HDAC assessed as increase in histone H4 acetylation at 3 times antiplasmodial IC50 relative to control
[35] = test system: Plasmodium berghei; test: Antimalarial activity against Plasmodium berghei ANKA infected in BALB/c mouse assessed as reduction in parasitemia at 50 mg/kg, po administered twice daily (one dose iv and one dose po) for 4 days by Giemsa-staining based microscopic analysis; type: functional, organism-based
[36] = Plasma concentration in Crl:NRMI mouse at 50 mg/kg, iv measured after 60 mins by LC-MS/MS analysis; type: ADME, organism-based
[37] = Plasma concentration in Crl:NRMI mouse at 50 mg/kg, iv measured after 15 mins by LC-MS/MS analysis; type: ADME, organism-based
[38] = Plasma concentration in Crl:NRMI mouse at 50 mg/kg, iv measured after 180 mins by LC-MS/MS analysis; type: ADME, organism-based
[39] = test system: Plasmodium berghei; test: Antimalarial activity against Plasmodium berghei ANKA infected in BALB/c mouse assessed as reduction in parasitemia at 10 mg/kg, po administered once daily for 4 days by Giemsa-staining based microscopic analysis; type: functional, organism-based

DNA (cytosine-5)-methyltransferase 3A, sequence (Q9Y6K1 whole entry, looked up, the tested form may be a part): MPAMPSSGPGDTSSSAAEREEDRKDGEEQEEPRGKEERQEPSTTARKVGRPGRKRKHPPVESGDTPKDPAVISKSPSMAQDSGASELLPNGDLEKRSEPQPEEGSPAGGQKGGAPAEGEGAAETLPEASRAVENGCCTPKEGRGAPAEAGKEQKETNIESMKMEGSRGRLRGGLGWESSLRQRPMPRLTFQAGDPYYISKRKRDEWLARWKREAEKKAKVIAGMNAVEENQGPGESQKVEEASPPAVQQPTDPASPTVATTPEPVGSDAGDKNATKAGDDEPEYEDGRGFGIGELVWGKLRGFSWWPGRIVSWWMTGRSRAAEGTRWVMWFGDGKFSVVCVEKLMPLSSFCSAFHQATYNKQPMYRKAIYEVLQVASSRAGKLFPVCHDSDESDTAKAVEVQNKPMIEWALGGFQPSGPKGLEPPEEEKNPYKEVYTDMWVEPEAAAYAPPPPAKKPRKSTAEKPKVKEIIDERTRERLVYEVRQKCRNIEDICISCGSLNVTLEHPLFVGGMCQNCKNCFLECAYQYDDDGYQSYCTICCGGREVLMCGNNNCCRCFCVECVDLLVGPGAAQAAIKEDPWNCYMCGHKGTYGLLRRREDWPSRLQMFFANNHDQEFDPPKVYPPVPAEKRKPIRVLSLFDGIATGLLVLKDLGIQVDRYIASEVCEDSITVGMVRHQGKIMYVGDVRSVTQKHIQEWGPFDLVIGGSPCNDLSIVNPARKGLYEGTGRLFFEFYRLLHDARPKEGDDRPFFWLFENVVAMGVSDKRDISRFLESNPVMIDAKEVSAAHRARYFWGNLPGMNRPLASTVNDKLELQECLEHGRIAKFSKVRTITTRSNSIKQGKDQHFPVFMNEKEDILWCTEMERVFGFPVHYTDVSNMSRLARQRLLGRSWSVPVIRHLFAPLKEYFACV
DNA (cytosine-5)-methyltransferase 1, sequence (P26358 whole entry): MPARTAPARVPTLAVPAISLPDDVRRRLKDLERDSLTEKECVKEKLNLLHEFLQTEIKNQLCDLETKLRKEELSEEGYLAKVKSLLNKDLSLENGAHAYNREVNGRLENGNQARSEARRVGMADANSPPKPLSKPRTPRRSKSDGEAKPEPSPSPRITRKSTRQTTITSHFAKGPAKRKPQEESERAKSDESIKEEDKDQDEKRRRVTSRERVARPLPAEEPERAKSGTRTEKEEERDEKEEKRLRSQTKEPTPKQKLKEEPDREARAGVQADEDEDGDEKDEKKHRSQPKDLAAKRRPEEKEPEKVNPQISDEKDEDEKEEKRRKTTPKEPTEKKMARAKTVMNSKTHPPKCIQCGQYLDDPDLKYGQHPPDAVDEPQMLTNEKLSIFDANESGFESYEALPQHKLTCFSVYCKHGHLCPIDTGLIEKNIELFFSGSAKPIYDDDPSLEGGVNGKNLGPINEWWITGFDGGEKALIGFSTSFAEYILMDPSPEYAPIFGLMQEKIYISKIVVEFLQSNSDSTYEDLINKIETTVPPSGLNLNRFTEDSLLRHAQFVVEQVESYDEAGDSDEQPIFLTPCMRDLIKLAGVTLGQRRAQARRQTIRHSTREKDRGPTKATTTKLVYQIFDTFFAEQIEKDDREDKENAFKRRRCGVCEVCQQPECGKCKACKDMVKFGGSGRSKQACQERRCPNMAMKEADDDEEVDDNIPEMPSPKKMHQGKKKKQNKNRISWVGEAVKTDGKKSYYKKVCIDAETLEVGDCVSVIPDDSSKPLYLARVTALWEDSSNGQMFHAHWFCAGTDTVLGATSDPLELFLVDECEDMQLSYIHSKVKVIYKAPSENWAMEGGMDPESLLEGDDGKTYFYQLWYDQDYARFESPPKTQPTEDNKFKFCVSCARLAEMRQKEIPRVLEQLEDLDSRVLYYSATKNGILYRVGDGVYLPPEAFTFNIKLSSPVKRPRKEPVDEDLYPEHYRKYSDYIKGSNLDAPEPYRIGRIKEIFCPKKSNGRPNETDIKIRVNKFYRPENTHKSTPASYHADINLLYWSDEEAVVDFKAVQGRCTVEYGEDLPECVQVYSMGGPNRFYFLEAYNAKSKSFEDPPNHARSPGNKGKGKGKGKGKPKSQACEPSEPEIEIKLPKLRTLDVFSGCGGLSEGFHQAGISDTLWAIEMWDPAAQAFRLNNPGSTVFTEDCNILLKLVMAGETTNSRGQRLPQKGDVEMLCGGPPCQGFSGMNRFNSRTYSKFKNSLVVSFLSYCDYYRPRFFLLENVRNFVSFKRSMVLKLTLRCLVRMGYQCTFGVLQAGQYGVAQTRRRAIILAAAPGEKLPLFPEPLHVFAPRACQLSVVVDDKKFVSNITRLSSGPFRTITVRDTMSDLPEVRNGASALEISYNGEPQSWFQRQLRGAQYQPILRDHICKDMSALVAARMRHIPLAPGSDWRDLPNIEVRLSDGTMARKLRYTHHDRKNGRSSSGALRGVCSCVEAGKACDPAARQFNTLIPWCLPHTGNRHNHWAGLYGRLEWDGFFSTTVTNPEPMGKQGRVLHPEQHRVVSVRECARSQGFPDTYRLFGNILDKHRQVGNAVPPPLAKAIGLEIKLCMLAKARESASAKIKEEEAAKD

Structure (SMILES)	EC50 [2] [nM]	selectivity ratio [3]	IC50 [5] [nM]	EC50 [7] [nM]	EC50 [9] [nM]	IC50 [10] [nM]	IC50 [12] [nM]	IC50 [13] [nM]	inhibition at 10 µM [16] [%]	IC50 [18] [nM]	Stability [23]	Activity [26]	concentration at 1 h [27] [nM]	concentration at 0.5 h [29] [nM]	concentration at 3 h [31] [nM]	Activity [32]	other results
COc1cc2nc(NCc3ccc(F)cc3)nc(NC3CCN(C(=O)OC(C)(C)C)CC3)c2cc1OC	> 100000	> 500	> 10000	8700	137000	43.6	18.5	7170	100	18.7 to 18.9	–	–	–	–	–	–	Activity [1]: Active; concentration at 0.25 h [4]: 3410 to 5110 nM; Activity [6]: inactive; concentration at 0.5 h [8]: 120 to 130 nM; concentration at 1 h [11]: 100 to 280 nM; concentration at 1 h [14]: 930 to 1110 nM; Activity [15]: Active; solubility [17]: Insoluble; remaining at 24 h [19]: 60%; concentration at 3 h [20]: 30 nM; concentration at 3 h [21]: 220 to 460 nM
COc1cc2c(NC3CCN(Cc4ccccc4)CC3)nc(N3CCN(c4ccccc4)CC3)nc2cc1OCc1ccccc1	> 100000	> 295	> 10000	1600	> 100000	39.9	81.3	5630	100	34	Stable	Toxic	480 to 700	380 to 940	280 to 390	–	Activity [22]: Non-Toxic; Activity [24]: 2%; Activity [25]: Active; Activity [28]: Active; Activity [30]: Toxic
COc1cc2c(NC3CCN(Cc4ccccc4)CC3)nc(N3CCN(c4ccccc4)CC3)nc2cc1O	> 100000	255	2580	6200	> 100000	18.6	42.6	7210	100	10.1	Stable	Toxic	1040 to 3520	3430 to 4570	290 to 670	Active	Activity [33]: <10%
O=C(CCCCSc1nc(-c2ccc(-c3ccccc3)cc2)cc(=O)[nH]1)NO	–	186	785	–	–	6.6	4	3300	96.1 to 97	4 to 6	Stable	–	480 to 900	670 to 2430	70 to 300	inactive	fold change (FC) [34]: < 2; Activity [35]: inactive; concentration at 1 h [36]: 1670 to 2160 nM; concentration at 0.25 h [37]: 10700 to 15200 nM; concentration at 3 h [38]: 43 to 44 nM
CCN(CC)CCCC(C)Nc1ccnc2cc(Cl)ccc12 (stereo unspecified)	–	–	–	–	–	–	–	–	–	–	–	–	–	–	–	–	Activity [39]: Active
